For this experiment, the target named is T1, human NHE3 (Homo sapiens, UniProt P48764).
T1 construct: myc; expressed in transfected cells
T1 sequence (P48764 26-834): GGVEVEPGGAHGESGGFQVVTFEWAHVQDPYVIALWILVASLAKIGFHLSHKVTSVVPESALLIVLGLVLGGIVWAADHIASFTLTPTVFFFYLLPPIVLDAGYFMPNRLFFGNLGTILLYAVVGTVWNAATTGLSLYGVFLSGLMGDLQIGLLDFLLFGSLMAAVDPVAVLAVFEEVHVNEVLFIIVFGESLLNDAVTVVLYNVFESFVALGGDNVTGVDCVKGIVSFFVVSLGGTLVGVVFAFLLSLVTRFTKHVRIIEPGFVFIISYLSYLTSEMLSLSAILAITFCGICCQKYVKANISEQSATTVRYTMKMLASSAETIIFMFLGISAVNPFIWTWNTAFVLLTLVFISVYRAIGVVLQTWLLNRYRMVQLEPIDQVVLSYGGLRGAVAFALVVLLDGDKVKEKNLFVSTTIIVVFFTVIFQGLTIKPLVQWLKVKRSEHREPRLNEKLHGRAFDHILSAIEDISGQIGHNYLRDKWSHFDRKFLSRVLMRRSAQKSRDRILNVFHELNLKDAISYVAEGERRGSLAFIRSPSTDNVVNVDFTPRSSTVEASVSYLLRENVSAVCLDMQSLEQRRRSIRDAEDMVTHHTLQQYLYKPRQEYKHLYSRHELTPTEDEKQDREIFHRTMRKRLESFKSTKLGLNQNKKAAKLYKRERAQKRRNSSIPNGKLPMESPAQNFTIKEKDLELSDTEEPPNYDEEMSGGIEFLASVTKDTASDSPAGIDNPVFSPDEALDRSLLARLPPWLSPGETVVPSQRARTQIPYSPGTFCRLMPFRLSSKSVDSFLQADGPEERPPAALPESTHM
Put plainly: In vitro NHE3 inhibition activity (intracellular pH recovery, BCECF-AM, NHD C8 cells overexpressing human NHE3). The class given is cell-based. The note with it: geometric mean of individual IC50. The source says: In Vitro NHE3 Inhibition Activity
To create an NHE3 assay, cells selectively expressing NHE3 are generated by overexpressing human NHE3 in an endogenously NHE-deficient cell line. The NHE-deficient cell line is created by chemical-induced mutagenesis. After the mutagenesis, NHE-deficient cells are selected by subjecting lithium (Li) loaded cells to an acidic extracellular environment. Under these conditions, NHE exchanges intracellular Li^+ for extracellular protons, thus only NHE-deficient cells can avoid a toxic intracellular acidosis and survive.
An NHE-deficient cell line, NHD C8, is generated by mutagenesis and selection from the cell line Dede (ATCC® CCL-39™). The mutagenesis is induced by treating Dede CCL-39 cells with EMS (Sigma-Aldrich) in growth media at a final concentration of 500 μg/ml for 20 h. […]
To measure NHE activity, the intracellular pH of the cells is reduced by addition of NH4Cl. The sodium-dependent intracellular pH change is then measured by the intracellular pH-sensitive fluorescein dye, BCECF-AM (Molecular Probes-ThermoFisher Scientific). […] The plate is immediately read for fluorescent intensity at an excitation wavelength of 505 nm and emission wavelength of 550 nm. […]

The structures appear in SMILES notation.

With `CN1Cc2c(Cl)cc(Cl)cc2[C@H](c2cccc(S(=O)(=O)NCCOCCOCCN/C(=N\C(N)=O)NCCCCN/C(=N/C(N)=O)NCCOCCOCCNS(=O)(=O)c3cccc([C@@H]4CN(C)Cc5c(Cl)cc(Cl)cc54)c3)c2)C1.Cl.Cl` [Example 2, [[4-[[N′-Carbamoyl-N-[2-[2-[2-[[3-[(4S)-6,8-dichloro-2-methyl-3,4-dihydro-1H-isoquinolin-4-yl]phenyl]sulfonylamino]ethoxy]ethoxy]ethyl]carbamimidoyl]amino]butylamino]-[2-[2-[2-[[3-[(4S)-6,8-dichloro-2-methyl-3,4-dihydro-1H-isoquinolin-4-yl]phenyl]sulfonylamino]ethoxy]ethoxy]ethylamino]methylene]urea dihydrochloride], the concentration for half-maximal inhibition (IC50) is 5.76 nM.

These data come from US12428377B2, “Sodium-hydrogen exchanger 3 inhibitor compounds” (Eli Lilly and Company, priority 2019, dated 2025).
